Data on six molecules can be found in patent US11542475B2, “3D microphysiologic system” (Northwestern University, priority 2014, dated 2023).

One data set has as its system Stage 5b mouse follicles. As to the method:
Cisplatin (CDDP) and cyclophosphamide (CTX) were obtained from Sigma-Aldrich (St. Louis, Mo.) and used at final concentrations of: 0.2, 1, and 5 μM. Nalbuphine and Raclopride were obtained from the NIH Clinical Collection (South San Francisco, Calif.) and used at final concentrations of: 0.2, 1, and 5 μM. Corexit EC 9500A was obtained via a Material Transfer Agreement from Nalco (Sugar Land, Tex.). CE was used at final concentrations of: 5 ppm, 10 ppm, 25 ppm, 50 ppm, 75 ppm, 100 ppm, 125 ppm, 150 ppm, 200 ppm, 250 ppm, 300 ppm, 350 ppm and 400 ppm, which correspond to 4.75 mg/L, 9.5 mg/L, 23.75 mg/L, 47.5 mg/L, 71.25 mg/L, 95 mg/L, 118.75 mg/L, 142.5 mg/L, […], 237.5 mg/L, 285 mg/L, 332.5 mg/L and 380 mg/L.
All experiments were performed using CD-1 female mice (Harlan Laboratories, Indianapolis, Ind.) that were housed in a controlled barrier facility at Northwestern University's Center of Comparative Medicine under constant temperature, humidity and light (12 h light/12 h dark). Food and water were provided ad libitum. All animal experiments were approved by the Institutional Animal Care and Use Committee and were in accordance with National Institutes of Health Guidelines. For follicle isolation, ovaries were dissected from 14-15-day-old mice and cut into 4 pieces. The tissue was incubated for 1 hour in L15 media (Invitrogen, Carlsbad, Calif., USA) containing 2% Liberase™ (Roche, Indianapolis, Ind.) and 1% DNase I (Worthington, Lakewood, N.J.). The enzymatic digestion was quenched by rinsing follicles in αMEM Glutamax (Invitrogen) containing 1% Fetal Bovine Serum (FBS, Invitrogen, Carlsbad, Calif.) and 0.5% Pen-Strep (Mediatech, Herndon, Va.). Type 5b multilayer secondary follicles (140-175 μm in diameter) were manually collected and cultured individually in wells of a 96-well plate (Pedersen and Peters, 1968; herein incorporated by reference in its entirety).
Follicles were cultured at 37° C. in a humidified atmosphere of 5% CO2 in air for up to 6 days. All chemical exposures were initiated on day 2 of culture. Half of the culture media was replaced with fresh GM every other day and spent media was stored at −20° C. for use in steroid hormone assays. Follicles were imaged at each media change using a Leica DM IRB inverted microscope equipped with 4× and 20× objectives (Leica Microsystems, Heidelberg, Germany) to assess survival, morphology and growth. Live follicles were defined as those that contained an oocyte surrounded completely by somatic cells. […] The percent of surviving follicles was calculated as the number of live follicles out of the total number of follicles plated. Antral cavity formation was assessed morphologically and characterized by the differentiation of outer layers of mural granulosa cells and inner layers of cumulus granulosa cells surrounding the oocyte as well as the presence of a fluid-filled structure.

Data set [1] deals with human fallopian fimbriae FTE. Put plainly: 3D human fimbriae culture: FTE proliferation by BrdU labeling. As to conditions: insulin 5 μg/ml (ITS), H2O2 1 mM, E2 10 nM, n=6. The data set is classed as cell-based. As to the method:
(§1) Tissues were micro-dissected in alpha-MEM (Gibco, Carlsbad, Calif.) with 1% penicillin-streptomycin (Invitrogen, Carlsbad, Calif.). Individual fimbriae were separated into ˜50 mm^3 pieces. A portion of the tissue was fixed in 2% paraformaldehyde for use as an uncultured control. For optimization studies, fimbriae were cultured without matrix, encapsulated in 0.5% alginate, or encapsulated in 0.5% alginate with 1 mg/ml collagen and 0.1% fibronectin, as previously described for murine cultures (King et al. J Vis Exp. 2011.; herein incorporated by reference in its entirety). For subsequent treatments, 0.5% alginate encapsulated fimbriae were randomly assigned to treatment groups, with at least five fimbriae per condition, per patient, in a 24-well plate containing alpha-MEM and 1% penicillin-streptomycin. […] Prior to fixation, fimbriae were labeled with 10 μM bromodeoxyurine (BrdU, Sigma-Aldrich) for 24 hours to denote proliferating cells. Fimbriae cultures were fixed (2% paraformaldehyde) followed by dehydration in ethanol and xylene, and embedment in paraffin.
Sections (5 μm) were cut and stained via hematoxylin and eosin for morphological analysis or immunohistochemistry was performed to localize proteins of interest as previously described (King et al. Endocr Relat Cancer. 2011. 18:627-42.; herein incorporated by reference in its entirety). Slides were rehydrated through an ethanol gradient, prior to 0.1M sodium citrate retrieval and peroxidase block. Tissues probed for BrdU were exposed to 4M HCl and 0.1M NaB4O7(Fisher Scientific) to denature DNA. All immunohistochemical reagents were obtained from Vector Laboratories, Inc (Burlingame, Calif.) unless otherwise stated. Tissues were blocked in 3% bovine serum albumin (Gemini, West Sacramento, Calif.)-TBS/10% serum and incubated with a primary antibody 1:50 acetylated tubulin (Cell Signaling, Cambridge, Mass.); 1:200 BrdU (AbCam, Cambridge, Mass.); 1:100 cytokeratin 8 (CK8, Developmental Studies Hybridoma Bank, Iowa City, Iowa); 1:50 p53 (Santa Cruz, Santa Cruz, Calif.); 1:100 PAX8 (Proteintech, Chicago, Ill.); 1:100 pH2AX (Cell Signaling); or 1:75 PR (Santa Cruz)) overnight at 4°. Tissues were washed in TBS-0.1% Tween and incubated with a secondary antibody (1:200), before being probed with ABC peroxidase standard, followed by detection with 3,3′-diaminobenzidine (DAB) and counterstained with hematoxylin.
Immunohistochemistry images were taken via a Nikon E600 microscope, DXM1200 digital camera and NIS Elements software (Nikon Instruments, Melville, N.Y.). For proliferation analysis, concurrent sections were stained for CK8 and BrdU. BrdU sections were imaged and epithelial cells (CK8 positive) were quantified for proliferation via ImageJ software (NIH, Bethesda, Md.). At least three fimbriae with 200 or more FTE were quantified for each treatment. […] Samples with p53 expression were quantified utilizing adjacent sections stained for the secretory cell marker PAX8 in a qualitative manner as described.
(In general: Incorporation of labelled thymidine or its analogues reports DNA synthesis.)

For another data set, the system named is p53 stabilization in FTE. Nature of the data set: 3D human fimbriae culture: p53 immunohistochemistry. The note with it: 2 and 7 days treatment, n=8. The data set is classed as cell-based. The protocol: as §1
Sections (5 μm) were cut and stained via hematoxylin and eosin for morphological analysis or immunohistochemistry was performed to localize proteins of interest as previously described (King et al. Endocr Relat Cancer. 2011. 18:627-42.; herein incorporated by reference in its entirety). Slides were rehydrated through an ethanol gradient, prior to 0.1M sodium citrate retrieval and peroxidase block. […]
Immunohistochemistry images were taken via a Nikon E600 microscope, DXM1200 digital camera and NIS Elements software (Nikon Instruments, Melville, N.Y.). […] BrdU sections were imaged and epithelial cells (CK8 positive) were quantified for proliferation via ImageJ software (NIH, Bethesda, Md.). At least three fimbriae with 200 or more FTE were quantified for each treatment. Analysis of p53 staining was similar, with at least three fimbriae per treatment, per patient analyzed. Samples with p53 expression were quantified utilizing adjacent sections stained for the secretory cell marker PAX8 in a qualitative manner as described.

The subject of data set [2] is human fallopian tube epithelium. Nature of the data set: Fallopian epithelia cilia beating quantification. The data set is classed as cell-based. As to conditions: 7 days culture; P4 added to E2. The protocol: Human fallopian tissue was obtained from routine hysterectomies from women in their reproductive years (ages range from 26 to 50 years old) and who had not undergone exogenous hormonal treatment for at least three months prior to surgery. Informed consent was obtained from each patient and approval granted by the ethics committee of the Northwestern University. Human fallopian tissue was kept in the DMEM/F12 medium with 10% FBS on ice and processed within 24 hours. The tissue was washed with warm PBS solution two times before being transferred into warm dissection medium (Liebowitz 15 with 0.5% P/S and 10% FBS). After cleaning connective tissue from outside of the fallopian tissue, the fallopian tube was cut open and the inner epithelia layer was mechanically dissected using forceps. […]
Fallopian epithelia layers were cultured in estradiol (E2) 1 nM, E2 1 nM+progesterone (P4) 10 nM, E2 0.1 nM+P4 50 nM or with solvent only negative control for 7 days. Cilia beating movies were acquired using an Andor Spinning Disk Confocal with 5 ms exposure time and 5 ms readout time. […] The Multiple Kymograph plugin for the NIH ImageJ software was used to quantify cilia beating frequency. In each movie, 8 clusters of cilia were picked for the cilia beating quantification.

Data set [3] relates to OVGP1 expression in human fallopian epithelium. Put plainly: OVGP1 immunoblot of cultured fallopian epithelium lysate. The data set is classed as cell-based. As to the method: (§2) Human fallopian tissue was obtained from routine hysterectomies from women in their reproductive years (ages range from 26 to 50 years old) and who had not undergone exogenous hormonal treatment for at least three months prior to surgery. Informed consent was obtained from each patient and approval granted by the ethics committee of the Northwestern University. Human fallopian tissue was kept in the DMEM/F12 medium with 10% FBS on ice and processed within 24 hours. The tissue was washed with warm PBS solution two times before being transferred into warm dissection medium (Liebowitz 15 with 0.5% P/S and 10% FBS). After cleaning connective tissue from outside of the fallopian tissue, the fallopian tube was cut open and the inner epithelia layer was mechanically dissected using forceps. […] Tissue was cultured on 0.4 μm pore Millicell inserts (PICM03050, EMD Millipore Co, Billerica, Mass., USA) twelve-well plates with culture medium in a 37° C. and 5% CO2 incubator. Estrogen (E2) and progesterone (P4) used in tissue culture experiments were purchased from Sigma (St. Louis, Mo.).
(§3) Cultured human fallopian epithelia layers were homogenized with a minipestle in ice-cold lysis buffer (20 mM Tris-HCl, pH 8.0, 137 mM NaCl, 10% glycerol, 1% NP-40, 2 mM EDTA). Lysate normalized for protein content was loaded into NuPAGE 4-12% gradient Bis-Tris precast SDS-PAGE gels and transferred to a nitrocellulose membrane (Life Technologies, Carlsbad, Calif., USA). Blots were probed by polyclonal anti-OVGP1 antibody (LsBio, Cambridge, Mass.) overnight in 4° C. followed by anti-rabbit secondary antibody conjugated to horseradish peroxidase (Zymed, San Francisco, Calif.). Proteins were detected by ECL primer (GE HealthCare Life Sciences, Pittsburgh, Pa.) and exposed to X-ray film (Kodak, Rochester, N.Y.). The same blot was stripped using stripping buffer (Thermo Scientific, Hanover Park, Ill.) and re-probed with monoclonal anti-α-tubulin (Sigma, St. Louis, Mo.) followed by an anti-mouse secondary antibody conjugated to horseradish peroxidase. NIH ImageJ Imaging Software was used to quantify the density of western blot bands. Conditioned medium from fallopian epithelia cultures was collected and probed via western blot analysis using a polyclonal anti-hIGF1 antibody (abcam, Cambridge, Mass.). The blot was detected by the same method described above.
(In western blotting, separated proteins are transferred to a membrane and probed.)

Data set [4] deals with IGF1 secretion by human fallopian epithelium. Put plainly: hIGF1 immunoblot of fallopian epithelium conditioned medium. The data set is classed as cell-based. As to the method:
as §2, §3
Fallopian epithelia layers cultured on […] inserts were pre-cultured in the alpha-MEM with 0.3% BSA, ITS and 1% P/S medium for two days. Cell culture medium was collected for the glucose ELISA assay (abcam, Cambridge, Mass.). Medium was diluted 1:500 and ELISA was performed according to the protocol provided by the kit. […]

The next data set relates to endometrial cells. Nature of the data set: Cell survival Wst-1 assay in endometrial cells cultured in 2D. The note with it: 2D culture, 72 hours. The data set is classed as cell-based, human.
Setting [5] is: 28 days stepwise E2 and P4 treatment, P4 in the presence of E2.

Like-named read-outs stand apart in the source and are kept apart here.

Turning to `[NH2][Pt]([NH2])([Cl])[Cl]` [CDDP, Cisplatin], the “concentration at which complete release of the oocyte from the follicle was first observed” value in the data set on Stage 5b mouse follicles is 5000 nM. In addition, the follicle survival in the data set on Stage 5b mouse follicles (1 μM, day 4 of culture) is recorded as 76.31%; with Stage 5b mouse follicles (1 μM, day 6 of culture) it was 58.38%; with Stage 5b mouse follicles (5 μM, day 4 of culture) it was 47.83%; in the data set with Stage 5b mouse follicles (5 μM, day 6 of culture) it was 12.56%.

On to `O=P1(N(CCCl)CCCl)NCCCO1` (centres unmarked) [CTX, cyclophosphamide], for which the follicle survival in the data set on Stage 5b mouse follicles (0.2 μM, day 6 of culture (treated on day 2)) was found to be 71.8%; in the data set with Stage 5b mouse follicles (1 μM, day 4 of culture), 57.23%; with Stage 5b mouse follicles (1 μM, day 6 of culture) it was 32.43%; in the data set on Stage 5b mouse follicles (5 μM, day 4 of culture) it was 36.41%; with Stage 5b mouse follicles (5 μM, day 6 of culture) it was 11.49%. Besides, in the data set with Stage 5b mouse follicles (increasing concentrations (0.2, 1, 5 μM)), the follicle morphology result is “disorganized follicles with dark granulosa cells and little evidence of antral cavity formation”. Further, in the data set with Stage 5b mouse follicles (most severe phenotype), the “concentration at which complete release of the oocyte from the follicle was first observed” value was 1000 nM.

`OO` [H2O2]: the entries for the “FTE proliferation (percentage of total FTE cells, BrdU)” value in data set [1] (2 days in culture) and in data set [1] (7 days in culture) were 4.0±1.1% and 2.2±0.5%, respectively. For the same molecule, in the data set on p53 stabilization in FTE, the p53 stabilization entry was “no factor notably induced p53 stabilization”.

Consider `CC(=O)[C@H]1CC[C@H]2[C@@H]3CCC4=CC(=O)CC[C@]4(C)[C@H]3CC[C@]12C` [P4, progesterone], for which the “cilia beating frequency (CBF)” value in data set [2] was “decreased”. In addition, in data set [3] (7 days culture, P4 added to E2), the “OVGP1 expression in the fallopian lysate” value is reported as “suppressed”. Also, the OVGP1 expression entry in data set [3] (setting [5]) is reported as “suppressed”. The IGF1 secretion result is “attenuated” in data set [4] (7 days culture, 1 nM E2, P4 added to E2) and “suppressed” in data set [4] (setting [5]).

On to `C[C@]12CC[C@H]3[C@@H](CCC4=CC(=O)CC[C@@]43C)[C@@H]1CC[C@@H]2O` [testosterone], for which the “toxicity on endometrial cells (cell survival)” value with endometrial cells is on record as “no toxicity”.

For the molecule “Insulin: insulin 5 μg/ml given via ITS supplement (insulin; transferrin; selenite)”, in data set [1] (7 days in culture), the “FTE proliferation (percentage of total FTE cells, BrdU)” value came out at 4.1±0.9%. The p53 stabilization result in the data set with p53 stabilization in FTE is “no factor notably induced p53 stabilization”.
